In patent US20250359576A1, “THEANINE-CONTAINING COMPOSITION” (TAIYO KAGAKU Co., Ltd., priority 2024, published 2025):

How the values were obtained:
panelists [1] = assay: Test Example 3: sensory evaluation of unpleasant taste (off-flavor) at high concentrations, upper limit; type: in vivo; settings: six panelists
Protocol: Solutions containing theanine (Taiyo Kagaku Co., Ltd.: Suntheanine (registered trademark) U001) were prepared to contain 0 (control), 100, 500, 1000, 5000, and 10000 ppm of organic nitrogen compound A or C.
More specifically, 1996 mL of deionized water was added to 4 g of theanine, to prepare the theanine control solution (2 mg/mL theanine solution). 10000 ppm organic nitrogen compound solutions were prepared by adding […] of theanine control solution to 10 g of each organic nitrogen compound A and C.
150 mL of theanine control solution was added to 150 mL of each of the 10000 ppm organic nitrogen compound solutions to prepare 5000 ppm organic nitrogen compound solutions.
180 mL of theanine control solution was added to 20 mL of each of 10000 ppm organic nitrogen compound solutions to prepare 1000 ppm organic nitrogen compound solutions.
180 mL of theanine control solution was added to 20 mL of each of the 5000 ppm organic nitrogen compound solutions to prepare 500 ppm organic nitrogen compound solutions.
180 mL of theanine control solution was added to 20 mL of each of the 1000 ppm organic nitrogen compound solutions to prepare 100 ppm organic nitrogen compound solutions.
Similar solutions were also prepared for organic nitrogen compound C.
A sensory (taste) evaluation was conducted by six panelists. The evaluation category was unpleasant taste, which was considered to be an off-flavor.

panelists [2] = assay: Test Example 4: three-point discrimination sensory evaluation of organic nitrogen compound alone without theanine; type: in vivo; settings: compound alone in deionized water without theanine; 5 ppm test solution; eight panelists; binomial test, p<0.10
Protocol: Organic nitrogen compound B was added to deionized water (i.e. not containing theanine) to prepare solutions containing 0 (control), 5, 50, and 100 ppm of organic nitrogen compound B.
In other words, […] of organic nitrogen compound B was dissolved in 1000 mL of deionized water (control) to make a 100 ppm solution. 150 mL of deionized water was added to 150 mL of the 100 ppm organic nitrogen compound B solution to make a 50 ppm organic nitrogen compound B solution.
20 mL of the 50 ppm organic nitrogen compound B solution was mixed with 180 mL of deionized water to make a 5 ppm organic nitrogen compound B solution.
A three-point discrimination sensory evaluation was conducted by eight panelists. Bitterness was used as the evaluation category. […] The panelists were asked to select solution(s) that they felt was (were) bitter. Analysis was performed using a binomial test. In the statistical analysis, a significance level of 10% (p<0.10) was used as the threshold for statistical significance.

| SMILES | panelists who noticed an unpleasant taste (panelists [1]; 100-500 ppm in 2 mg/mL theanine solution) | panelists who noticed an unpleasant taste (panelists [1]; 1000-5000 ppm in 2 mg/mL theanine solution) | panelists who noticed an unpleasant taste (panelists [1]; 10000 ppm in 2 mg/mL theanine solution) | bitterness, three-point discrimination vs deionized water (panelists [2]) |
| --- | --- | --- | --- | --- |
| CC(N)=O [organic nitrogen compound C, acetamide] | one of six panelists | two of six panelists | all panelists | – |
| CCNC=O [organic nitrogen compound B, ethylformamide] | – | – | – | no significant difference |
